# Data published in patent US20260069584A1, “METHODS OF TREATING CHRONIC MYELOID LEUKEMIA USING THE TYROSINE KINASE INHIBITOR VODOBATINIB” (Sun Pharma Advanced Research Company Ltd., priority 2022, published 2026).
# What was measured:
# [1] = test system: Ph+ CML (CP CML, AP CML, and BP CML); test: Phase 2 open-label study (Part C) in CML resistant or intolerant to ≥3 prior TKIs including ponatinib: disease response; format: in vivo, human
# Method: A multicenter open-label study in subjects with CML (CP CML, AP CML, and BP CML) who documented resistance or intolerance to more than or equal to 3 prior TKIs one of which included ponatinib was performed. The subjects for this were grouped as follows: • a) Cohort A—Ph+ CML: Chronic phase (CP CML) cohort • b) Cohort B—Ph+ CML: Accelerated phase (AP) cohort • c) Cohort C—Ph+ CML: Blast phase (BP) cohort.
# The primary objective of this study was to evaluate the efficacy of the compound of Formula I in CP CML patients by cytogenetic outcomes and in AP CML and BP CML patients by hematologic outcomes. Secondary objectives included evaluation of anti-leukemic efficacy of compound of Formula I by molecular outcomes, hematological outcomes in CP CML patients, and by cytogenetic outcomes in AP CML and BP CML; time to first hematologic response; duration of response; progression-free survival (PFS) and overall survival (OS), population PK of the compound of Formula I and safety.
# The selection criteria for subjects (Both inclusion and exclusion) were the same as those set forth above study, except for the following: Subjects had to be previously treated with ≥3 prior TKIs including the 3rd generation TKI, ponatinib; subjects with Ph+ ALL were not included in this study; subjects with presence of T3151 mutations were excluded in the study. Limited to no response on a TKI therapy is reported in CML patients post-ponatinib treatment (Leuk Lymphoma 2018 June; 59 (6): 1312-1322).
# Patients were followed for survival by telephone survey.
# The Compound of Formula I with 174 mg as capsules was administered orally once daily continuously in 4-week cycles. Patients self-administered the compound of Formula I on an outpatient basis at approximately the same time each morning after overnight fasting or fasting ˜2 hours before and after dosing.
# Bone marrow aspirate samples were sent for review of cytogenetics by conventional Giemsa staining method (karyotyping). Fluorescence in situ hybridization (FISH) was performed on bone marrow aspirates only in cases of subjects who had achieved complete cytogenetic response (confirmed by karyotyping) with the studied drug and who had minimum residual disease. FISH was also used if a sufficient sample was not available for conducting the Giemsa staining method (karyotyping).
# Standard cytogenetic methods were used to determine the presence of the Ph+ and its presence (percentage) in the bone marrow. At least 20 cells in metaphase were evaluated for karyotyping. Bone marrow cytogenetics was scheduled to be performed within 7 days of the scheduled date irrespective of missed doses or disease or dose-associated AEs.
# Molecular response monitoring (MMR) using PCR for BCR-ABL copy number was performed on the collected blood samples and was assessed using the international scale (IS).
# The hematologic response was evaluated by peripheral blood utilizing local laboratory results.
# [2] = Parts B and C pooled (n=59): safety; conditions: in vivo
# Source text: Fifty-five of the 59 subjects (93.2%) experienced an AE during the study, of which 62.7% of AEs (n=37) were suspected to be related to the compound of Formula I treatment. Most frequently reported AEs related to the compound of Formula I included thrombocytopenia, neutropenia, nausea, diarrhea, pruritus, fatigue and myalgia. The compound of Formula I-related AEs was generally low grade and resolved with drug hold or dose reduction. […] The AEs were distributed across all the dosing cohorts without any safety trends or association with dose(s). The DLTs (except for 1 event of fatal intracranial hemorrhage) were non-serious AEs and managed well by dose delays and/or reductions. […] A total of 5 subjects died during the study or within 30 days after the last dose of the study drug, which is not unexpected given that all patients enrolled in the study had advanced and heavily pretreated CML. The AEs related to the compound of Formula I treatment were consistent with the advanced CML population with multiple comorbidities and concomitant medications during the study.
# [3] = molecular target: ABL1 kinase and its mutant forms; test: In-vitro ABL1 kinase inhibition; format: biochemical
# [4] = Oral toxicity study in Wistar Rats; conditions: rat, in vivo
# [5] = Pharmacokinetics in CML patients by dose cohort; conditions: for Cmin: cycle 2, CML patients, oral; for AUC(0-t) / Cmax: human, plasma, po
# Method: A±5 minutes window permitted till 4 hours PK sample collection. A±10 minutes window permitted for subsequent PK sample collection. Days 3, 8, 15, and 22 of Cycle 1:30 (±10) minutes Predose only. […] A #5 minutes window permitted till 4 hours PK sample collection. A #10 minutes window permitted for subsequent PK sample collection. Days 8, 15, and 22 of Cycle 2:30 (±10) minutes Predose only. Cycle 3 onwards: Predose samples on Day 1.
# Pharmacokinetic analysis was performed using non-compartmental analysis. The actual elapsed time from dose was used in the final PK parameter calculations. Plasma concentrations and PK parameters for the compound of Formula I were listed and summarized by dose cohort using descriptive statistics (n, mean, standard deviation, minimum, median, and maximum). Geometric mean and geometric coefficient of variation were calculated for PK parameters. Additionally, mean concentration profiles by dose cohort and cycle were illustrated. Dose proportionality of Cmax and AUC(0-24) was assessed graphically for Cycle 1 and Cycle 2. Dose proportionality was statistically evaluated using the power model approach, whenever the number of patients was at least 3 for a given cohort. Time to steady-state (Ctrough) was evaluated graphically. Differences among dose levels in CL/F and V/F, and dose-normalized Cmax and AUC(0-24) were explored using an analysis of variance.
# The PK parameters for the study were summarized by treatment using descriptive (N, n, mean, standard deviation [SD], coefficient of variation [CV] % minimum, median, maximum, geometric mean and CV %) statistics, except for Tmax. For Tmax, the number of subjects, minimum, median, and maximum are reported.
# [6] = Single- and repeat-dose studies in preclinical models, oral route
structure (smiles),measurement,setting,value
"Cc1ccc(C(=O)NNC(=O)c2c(C)cccc2Cl)cc1C#Cc1cnc2ccccc2c1 [compound of Formula I, N′-(2-chloro-6-methylbenzoyl)-4-methyl-3-[2-(3-quinolyl)ethynyl]-benzohydrazide]",Best Cytogenetic Response: Complete Cytogenetic Response,[1]; 174 mg (N = 7),1 (14.3%)
same,Best Cytogenetic Response: Major Cytogenetic Response,[1]; 174 mg (N = 7),2 (28.6%)
same,Best Cytogenetic Response: Minimal Cytogenetic Response,[1]; 174 mg (N = 7),0
same,Best Cytogenetic Response: Minor Cytogenetic Response,[1]; 174 mg (N = 7),0
same,Best Cytogenetic Response: No Response,[1]; 174 mg (N = 7),2 (28.6%)
same,Best Cytogenetic Response: Partial Cytogenetic Response,[1]; 174 mg (N = 7),1 (14.3%)
same,Best Hematologic Response: Complete Hematologic Response,[1]; 174 mg (N = 7),6 (85.7%)
same,Best Hematologic Response: Major Hematologic Response,[1]; 174 mg (N = 7),6 (85.7%)
same,Best Hematologic Response: No Evidence of Leukemia,[1]; 174 mg (N = 7),0
same,Best Hematologic Response: No Response,[1]; 174 mg (N = 7),1 (14.3%)
same,Best Molecular Response: Complete Response,[1]; 174 mg (N = 7),0
same,Best Molecular Response: Major Response,[1]; 174 mg (N = 7),1 (14.3%)
same,Best Molecular Response: No Response,[1]; 174 mg (N = 7),4 (57.1%)
same,Major molecular response (MMR) as best response,"[1]; 1 of the 7 enrolled subjects, 174 mg",14.3%
same,Complete hematological response (CHR) as best response,[1]; 2 of the 2 AP-CML enrolled subjects,100%
same,Major cytogenetic response (MCyR) as best response,"[1]; 2 of the 7 enrolled subjects, 174 mg",28.6%
same,major hematological response (MaHR) as best response,"[1]; 6 of the 7 enrolled subjects, 174 mg",85.7%
same,Major molecular response (MMR) as best response,[1]; 6 of the 13 enrolled CP-CML subjects,46.2%
same,achieved MaHR in the study,"[1]; 7 enrolled subjects, 174 mg",5 subjects
same,came into the study in MaHR and maintained it,"[1]; 7 enrolled subjects, 174 mg",1 subject
same,Major cytogenetic response (MCyR) as best response,[1]; 11 CP-CML enrolled subjects,84.6%
same,Complete hematological response (CHR) as best response,[1]; 13 of the 15 CP-CML enrolled subjects,86.7%
same,achieved CHR in study,"[1]; CP-CML, of 13",9 subjects
same,came into the study in CHR and maintained it,"[1]; CP-CML, of 13",4 subjects
same,developed CCyR,"[1]; CP-CML, of the 13 subjects",61.5%
same,AEs suspected to be related to treatment,[2]; human,62.7%
same,subjects who died during the study or within 30 days after the last dose,[2]; human,5 subjects
same,subjects who experienced an AE,[2]; human,93.2%
same,subjects who experienced an SAE,[2]; human,34%
same,subjects with grade 3 or higher-grade AEs,[2]; human,Approximately 64.4%
same,relatedness of cardiac AEs,[2],considered unrelated
same,IC50,[3],nanomolar
same,NOAEL,[4],100 mg/kg/day
same,Cmin,[5]; dose cohort 12,61.8
same,Cmin,[5]; dose cohort 24,114
same,Cmin,[5]; dose cohort 48,261
same,Cmin,[5]; dose cohort 66,102.7
same,Cmin,[5]; dose cohort 90,363
same,Cmin,[5]; dose cohort 126,831
same,Cmin,[5]; dose cohort 174,254
same,Cmin,[5]; dose cohort 204,427
same,increase of mean exposures (AUC) with dose,[5]; doses above 174 mg,sub-proportional increase or plateauing of exposures
same,AUC(0-t),[5]; 12 mg,3330 ng·h/mL
same,Cmax,[5]; 12 mg,685 ng/mL
same,AUC(0-t),[5]; 24 mg,5070 ng·h/mL
same,Cmax,[5]; 24 mg,589 ng/mL
same,AUC(0-t),[5]; 48 mg,13700 ng·h/mL
same,Cmax,[5]; 48 mg,1090 ng/mL
same,AUC(0-t),[5]; 66 mg,7780 ng·h/mL
same,Cmax,[5]; 66 mg,830 ng/mL
same,AUC(0-t),[5]; 90 mg,22800 ng·h/mL
same,Cmax,[5]; 90 mg,2860 ng/mL
same,AUC(0-t),[5]; 126 mg,50300 ng·h/mL
same,Cmax,[5]; 126 mg,4100 ng/mL
same,AUC(0-t),[5]; 174 mg,35700 ng·h/mL
same,Cmax,[5]; 174 mg,4210 ng/mL
same,steady state reached (trough concentrations),[5]; majority of the subjects,≤ 3 days
same,accumulation at steady state,[5]; once-daily dosing,no low or minimal accumulation
same,adverse events,[6]; multiple efficacious doses,no specific adverse events
same,systemic exposure,"[6]; oral route, daily dosing",systemic bioavailability
same,AUC,"[6]; plasma, oral",13400 ng·h/mL
